Values after ≈ are worked out from the molar mass of the structure shown.
What was measured:
[1] = test system: A. baumannii (ATCC 19606); assay: Broth microdilution MIC; assay type: cell-based; settings: Acinetobacter baumannii, ATCC19606; A. baumannii (ATCC 19606); read-out: MIC (μg/mL) B
Description: (§1) The antimicrobial activities of PK inhibitor candidates were determined using the 96-well microtiter standard 2-fold serial broth microdilution method as described by CLSI (formerly NCCLS) with the various gram-positive and gram-negative bacteria species mentioned above. Bacteria from a single colony were grown, overnight in either BHI Broth (VRE), mueller hinton broth (S. aureus 29213; MRSA USA400) or L-broth (E. coli, P. aeruginosa, S. typhimuriu, K. Pneumonia and A. baumannii). […] Culture plates were incubated for 18-24 h at 37° C., and optical density at 600 nm (OD600) was measured using a Benchmark Plus™ microplate spectrophotometer (Bio-Rad™). The absorbance control values for the series containing CAMHB and inhibitor were subtracted as background from the corresponding infected wells. The MIC was defined as the lowest concentration of test compound leading to complete inhibition of cell growth in relationship to compound-free control wells as determined by optical density. […] All assays were run in triplicate (Tables 1-6) or duplicate. Experiments were replicated at least twice to verify reproducibility using the above conditions.
(§2) The antimicrobial activity of selected compounds against the gram negative bacteria Klebsiella pneumoniae, Acinetobacter baumannii, E. coli, Pseudomonas aeruginosa and Salmonella typhimurium, as well as additional gram positive bacteria, including drug-resistant strains, was tested according to the procedures provided under “General Methodologies” above.

[2] = test system: MRSA MW2 (USA400); assay: Broth microdilution MIC; assay type: cell-based; settings: Staphylococcus aureus; MRSA MW2 (USA400); read-out: MIC (μg/mL) G
Description: as §1, §2

[3] = test system: P. aeruginosa (PA01); assay: Broth microdilution MIC; assay type: cell-based; settings: Pseudomonas aeruginosa
Description: as §1, §2

[4] = test system: K. pneumoniae (C238); assay: Broth microdilution MIC; assay type: cell-based; settings: Klebsiella pneumoniae; K. pneumoniae (C238); read-out: MIC (μg/mL) A
Description: as §1, §2

[5] = test system: S. pyogenes (ATCC700294); assay: Broth microdilution MIC; assay type: cell-based; settings: Streptococcus pyogenes
Description: as §1, §2

[6] = test system: S. typhimurium (SL 1344); assay: Broth microdilution MIC; assay type: cell-based; settings: Salmonella enterica
Description: as §1, §2

[7] = In vivo tolerability (MTD) study
Description: (§3) The MTD and pharmacokinetic profiles of compounds 123 and 178 administered IV or PO were determined in female CD-1 mice (6-8 weeks of age). Compounds were dissolved in 3% DMSO/6% Solutol® HS 15/10 mM PB (pH7.4) for IV administration and in 3% DMSO/6% Solutol® HS 15/water for oral administration.
For tolerability studies, one animal from each group was administered the lowest dose first and then observed for 60 min. […] On the following day, the next higher dose was administered using the same procedure outlined above. Animals were euthanized 24 hours after the last injection, a cardiac puncture blood sample was collected and processed for plasma. Thigh muscle was collected and a necropsy performed.

[8] = test system: S. aureus ATCC 29123; assay: Neutropenic mouse Staphylococcus aureus thigh infection model; assay type: in vivo; settings: for median CFU/thigh: 24 h endpoint
Description: The antimicrobial activity of compound 178 against S. aureus ATCC 29123 was tested in vivo using the neutropenic mouse Staphylococcus aureus thigh infection model. […] Animals were individually monitored for adverse reactions for 30 min post-infection. […] Vancomycin was administered as a solution in PBS. The test compounds were administered as outlined in Table 12 at 2 and 8 hours post-infection and animals were individually monitored for adverse reactions for 30 min after each injection. All animals were then monitored hourly from 20 hours post infection to the endpoint (t=24 hr post infection). At the indicated timepoint, animals were sacrificed and the injected thigh collected. Quantitative enumeration of bacterial load was determined by plating serial dilutions from homogenized thigh muscles. Homogenized muscle was in a total of 2 mL volume, from which a 1 in 10 dilution was prepared (100 μL into 900 μL saline). From this a series of dilutions were prepared and plated on Mueller Hinton agar plates. […] At the end of this time colony counts were determined and the final CFU per mL calculated.

[9] = test system: E. coli (DAS 1-IMP); assay: microbe, parasite or virus in culture; assay type: cell-based, Escherichia coli; settings: Escherichia coli, read-out: MIC (μg/mL) C, E. coli (DAS 1-IMP)
Description: as §1, §2

[10] = test system: VRE#2 (2010A); assay: Broth microdilution MIC; assay type: cell-based, vancomycin-resistant Enterococcus; settings: Enterococcus; VRE#2 (2010A); read-out: MIC (μg/mL) F
Description: as §1, §2

[11] = Pharmacokinetic study; assay type: in vivo, female CD-1 mice; settings: female, CD-1, mouse, plasma
Description: as §3
For the pharmacokinetic study, animals were injected with their respective compound at the dose indicated in 11. At their respective time point, animals were deeply anesthetized with isoflurane and then asphyxiated with CO2. Cardiac puncture blood was collected immediately following death, and the blood processed to generate plasma.

O=C(c1c(-c2cc3cc(Cl)ccc3[nH]2)[nH]c2cc(Br)ccc12)C(F)(F)F [Compound 178, 1-(6-bromo-5′-chloro-1H,1′H-[2,2′-biindol]-3-yl)-2,2,2-trifluoroethan-1-one] gave an MIC [1] greater than 64 µg/mL, an MIC [2] of 0.5 µg/mL (≈ 1.13 µM) and an MIC [3] greater than 64 µg/mL. It also gave an MIC [4] of 1 µg/mL (≈ 2.26 µM), an MIC [5] of 1 µg/mL (≈ 2.26 µM) and an MIC [6] greater than 64 µg/mL. The Tolerability ([7]; IV doses of 30 mg/kg) was “well tolerated”, the Tolerability ([7]; PO doses of 10 mg/kg) was “well tolerated” and the “log reduction in median counts for CFU/thigh” value ([8]; all treated groups vs untreated control) was no less than 1 log. For the same molecule, the “median CFU/thigh” value ([8]; group 3, 3 mg/kg IV at 2 and 8 h) was 8.27×10^6 CFU/thigh, the “median CFU/thigh” value ([8]; group 4, 10 mg/kg IV at 2 and 8 h) was 1.38×10^3 CFU/thigh and the “median CFU/thigh” value ([8]; group 5, PO 10 mg/kg at 2 and 8 h) was 1.2×10^2 CFU/thigh. The “log reduction in median counts” value ([8]; group 5, PO 10 mg/kg vs untreated control) was 6 log, the “CFU/thigh of one mouse dosed only once” value ([8]; group 5, PO 10 mg/kg, single dose) was 2.2×10^2 CFU/thigh and the MIC [9] was greater than 64 µg/mL. The MIC [10] was 1 µg/mL (≈ 2.26 µM), the bioavailability ([11]; 10 mg/kg, PO administration, read-out: bioavailability (% F)) was 21% and the Cmax ([11]; IV administration at 3 mg/kg) was 19000 ng/mL. The half-life ([11]; IV administration at 3 mg/kg) was 2.27 h.
